For the assay, the system named is 677734-321-R-J1-PDC complex spheroid viability. Kind of assay: Anticancer human tumor 677734-321-R-J1-PDC patient-derived soft tissue sarcoma cell line growth inhibition [POLQ]. The following applies: for viability, T/C: stronger effect = lower value. The protocol:
Multicellular complex tumor spheroid response to Polymerase (POL) inhibitors (novobiocin, ART-558, RP6685) in combination with a variety of drugs and investigational agents in selected tumor cell lines
The POL inhibitors (novobiocin, ART-558, and RP6685) were evaluated both individually and in combination with standard of care and investigational anticancer small molecules within a complex spheroid model of solid tumors. . Complex spheroids include a stromal component modeled by human endothelial cells (HUVEC) and fibroblasts modeled by human mesenchymal stem cells (MSCs). The concentration ranges selected for each drug and investigational agent were based upon clinically achievable concentrations if the clinical Cmax of the agent was known.
Compounds. The drugs and investigational agents: novobiocin (NSC847541), ART-558 (NSC835418), RP-6685 (NSC848927), peposertib (NSC802822), ceralasertib (NSC780249), elimusertib (NSC800525), camonsertib (NSC841442), AZD-1390 (NSC803789), olaparib (NSC753686), talazoparib (NSC767125), rucaparib (NSC756644), sotorasib (NSC818433), MRTX-1133 (NSC836407), SN-38 (NSC673596), topotecan (NSC609699), epotoside (NSC141540), doxorubicin (NSC123127), gemcitabine (NSC613327), 5-fluorouracil (NSC19893), paclitaxel (NSC125973), vemurafenib (NSC761431), MSA-2 (NSC828583), SN-011 (NSC837082), adavosertib (NSC754352), prexasertib (NSC758257), carboplatin (NSC241240) and oxaliplatin (NSC266046), were obtained from the National Cancer Institute (NCI) Developmental Therapeutics Program Chemical Repository (21). The FDA-approved anticancer drug set is available from the Developmental Therapeutics Program at https://dtp.cancer.gov/organization/dscb/obtaining/. […] The stock solutions were prepared in dimethyl sulfoxide (DMSO, Sigma-Aldrich, St. Louis, MO, cat. D2650), except for the platinum compounds which were prepared in saline (Quality Biological, Gaithersburg, MD, cat. 114-055-101), at 800-fold the tested concentration and stored at -70 degrees C prior to their use. All drugs and investigational agents were tested over a range starting from a high concentration at or near the clinical Cmax and decreasing in half-log increments. If the clinical Cmax for an agent had not been determined, the highest concentration tested was 10 microM, except for SN-38, which was tested at a high concentration of 1 microM.
Cell Culture. All cells were maintained in an incubator at 37 degrees C and 5% CO2 with 95% humidity. The PDC lines were cultured according to standard operating procedures established by the NCI PDMR (https://pdmr.cancer.gov). Table 3 of the manuscript, lists the cell lines along with the number of the three cell types plated to form the mct-spheroids and media for tumor cell growth. After thawing, all PDC lines, except 997537-175-T-J1-PDC and 415267-285-R-J2-PDC, were cultured in Matrigel-coated flasks prepared with a working solution of 1X Ham's F-12 nutrient mix, without supplementation (Thermo Fisher Scientific, cat. 11765054), 100 U/mL penicillin-streptomycin (Thermo Fisher Scientific, cat. 15140122), and 2.5% Matrigel (Corning Inc., Corning, NY, cat. 354248) for the first three passages. The two PDC lines 997537-175-T-J1-PDC and 415267-285-R-J2-PDC were cultured on uncoated flasks. The 857933-349-R-J2-PDC line was cultured in 6C/Colon 1B media containing advanced DMEM/F-12 (Thermo Fisher Scientific, cat. 12634028), 10 mM HEPES (Thermo Fisher Scientific, cat. 15630080), 1X GlutaMAX supplement (Thermo Fisher Scientific, cat. 35050061), 0.1 mg/mL primocin (InvivoGen, San Diego, CA, cat. ant-pm-2), 10% defined fetal bovine serum, heat inactivated (HyClone Laboratories Inc., Logan, UT, cat. SH30070.03HI), 50% L-WRN conditioned media (ATCC, cat. CRL-3276), 1.25 mM N-Acetyl-L-cysteine (Sigma-Aldrich, cat. A9165), 10 mM nicotinamide (Sigma-Aldrich, cat. N0636), 1X B-27 supplement (Thermo Fisher Scientific, cat. 17504044), 1X N-2 supplement (Thermo Fisher Scientific, cat. […]

These results are taken from PubChem BioAssay AID1963842 (Molecular Pharmacology Branch, DTP, NCI, 2024).

Values joined by “and” are separate entries in the source; they are usually repeats but may differ in a detail not shown here. Equal values may be shown once. A value given as a limit tells only on which side of the number the result lay.

In general, IC50 refers to the concentration at which inhibition is half-maximal. For orientation: viability, T/C means the ratio of treated to control.
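Also: spheroids exposed to compounds for one week.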

Consider `CCc1cc2c(N3CCc4c(cc(Cn5ccnc5)cc4-c4cn(C)nc4C(F)(F)F)C3=O)ccnc2c(OC)n1` + COC1C(OC(N)=O)C(O)C(Oc2ccc3c(O)c(NC(=O)c4ccc(O)c(CC=C(C)C)c4)c(=O)oc3c2C)OC1(C)C, for which the half-inhibitory concentration (IC50) reads like this: (curve of first compound, second compound 0.0316 µM) > 10 µM; (curve of first compound, second compound 0.1 µM) > 10 µM; (curve of first compound, second compound 0.316 µM) > 10 µM; (curve of first compound, second compound 1 µM) > 10 µM; (curve of first compound, second compound 3.16 µM) > 10 µM; (curve of first compound, second compound 10 µM) > 10 µM. Moreover, the viability, T/C (second compound 0.0316 µM, first compound 0.0316 µM) was 111%; the viability, T/C (second compound 0.0316 µM, first compound 0.1 µM) was 108%; the viability, T/C (second compound 0.0316 µM, first compound 0.316 µM) was 105%; the viability, T/C (second compound 0.0316 µM, first compound 1 µM) is 106%; the viability, T/C (second compound 0.0316 µM, first compound 3.16 µM) is 88.7%; the viability, T/C (second compound 0.0316 µM, first compound 10 µM) was 62.5%. For the same molecule, the viability, T/C is, setting by setting: (second compound 0.1 µM, first compound 0.0316 µM) 108%; (second compound 0.1 µM, first compound 0.1 µM) 110%; (second compound 0.1 µM, first compound 0.316 µM) 109%; (second compound 0.1 µM, first compound 1 µM) 104%; (second compound 0.1 µM, first compound 3.16 µM) 92.2%; (second compound 0.1 µM, first compound 10 µM) 62.6%. The viability, T/C was 117% (second compound 0.316 µM, first compound 0.0316 µM); 105% (second compound 0.316 µM, first compound 0.1 µM); 98.4% (second compound 0.316 µM, first compound 0.316 µM); 98.7% (second compound 0.316 µM, first compound 1 µM); 84.8% (second compound 0.316 µM, first compound 3.16 µM); 64.6% (second compound 0.316 µM, first compound 10 µM). For the same molecule, the viability, T/C reads like this: (second compound 1 µM, first compound 0.0316 µM) 113%; (second compound 1 µM, first compound 0.1 µM) 103%; (second compound 1 µM, first compound 0.316 µM) 96.1%; (second compound 1 µM, first compound 1 µM) 100%; (second compound 1 µM, first compound 3.16 µM) 83.5%; (second compound 1 µM, first compound 10 µM) 58.6%. The viability, T/C runs as follows: (second compound 3.16 µM, first compound 0.0316 µM) 117%; (second compound 3.16 µM, first compound 0.1 µM) 101%; (second compound 3.16 µM, first compound 0.316 µM) 108%; (second compound 3.16 µM, first compound 1 µM) 97.5%; (second compound 3.16 µM, first compound 3.16 µM) 93.1%; (second compound 3.16 µM, first compound 10 µM) 63.6%. The viability, T/C (second compound 10 µM, first compound 0.0316 µM) is 112%; the viability, T/C (second compound 10 µM, first compound 0.1 µM) was 106%; the viability, T/C (second compound 10 µM, first compound 0.316 µM) is 109%; the viability, T/C (second compound 10 µM, first compound 1 µM) is 102%; the viability, T/C (second compound 10 µM, first compound 3.16 µM) was 81.6%; the viability, T/C (second compound 10 µM, first compound 10 µM) is 65%.

As for `Nc1ccc(C#CCN(C(=O)Cc2ncc(C(F)(F)F)cc2C(F)(F)F)c2ccc(F)cc2)nn1`, the viability, T/C is 104% [middle of 13 runs] (compound 0.1 µM), 103% [middle of 13 runs] (compound 0.316 µM) and 99.7% [middle of 13 runs] (compound 3.16 µM). For the same molecule, the half-inhibitory concentration (IC50) (compound alone, run of 12/05/2023) is > 10 µM.

As for `CNCc1ccc(-c2[nH]c3cc(F)cc4c3c2CCNC4=O)cc1`, the viability, T/C reads like this: (compound 0.0316 µM) 105% and 107% and 106%; (compound 0.1 µM) 101% and 75.4% and 97.1%; (compound 0.316 µM) 102% and 106% and 99.2%; (compound 1 µM) 101% and 99.7% and 105%; (compound 3.16 µM) 108% and 101% and 99%; (compound 10 µM) 106% and 82.2% and 88.9%. Besides, the 50% inhibitory concentration (IC50) (curve of compound) was > 10 µM.
